Source: patent US20260317308A1, “A SEQUENCE SELECTIVE DNA BINDING MOLECULE (SYNGRADER)” (ST. JUDE CHILDREN'S RESEARCH HOSPITAL, INC., priority 2023, published 2026)

Legend:
TCF3-PBX1-HaloTag = assay: P2RY10 luciferase reporter assay in HEK293T cells expressing Doxycycline-inducible TCF3-PBX1-HaloTag; assay type: cell-based, human
Description: Cells were transfected with P2RY10-Luciferase reporter plasmid DNA which contains the 282 bp P2RY10 promoter sequence cloned downstream of a minimal TATA box promoter. After 24 hours, the cells were treated with 0.70 and 1.0 μM PBX-SynTEF2 (SnTF2), SynTEF-PBX-DRG1 (DRG1), and SynTEF-PBX-DRG2 (DRG2). The SynTEF-PBX-DRG1 compound carries the Thalidomide ligand for recruitment of the Cerbelon E3-Ligase, and SynTEF-PBX-DRG2 has a VHL ligand for the recruitment of the VHL E3-Ligase. Doxycycline (DOX) was added at 0.1 ug/mL concentration to induce TCF3-PBX1-HaloTag expression, and 48 hours after DOX addition, NanoGlo Luciferase expression (Promega) was measured in the medium (Luciferase protein is secreted by the cells). Luciferase activity was calculated as Fold Change compared to “DMSO without DOX” control cells (purple bar), Error bars: Standard deviation. N>6 biological replicates.

[1] = system: NALM6 (N6) Acute Lymphoblastic Leukemia (ALL) B cells expressing TCF3-PBX1-HaloTag; assay: Cell viability assay (CellTiterGlo) in NALM6 ALL cells with Doxycycline-inducible TCF3-PBX1-HaloTag, co-transfected with P2RY10 and CMV luciferase reporter plasmids; assay type: cell-based; conditions: for loss in cell viability: loaded on WT TR DNA-Aptamer, vs DMSO no DOX
Description: The N6-TCF3-PBX1-HaloTag cells were Nucleofected (Lonza) with P2RY10-Luciferase and CMV promoter Luciferase reporter plasmid DNAs. After 24 hours, cells were treated with either wildtype (WT) or Mutant (MT) Transferrin Receptor (TR) WGGWWW DNA-Aptamers pre-loaded with PBX-SynTEF-FL (SnTF-FL), SynTEF-PBX-DRG1 (DRG1), and SynTEF-PBX-DRG2 (DRG2). The WT and MT DNA-Aptamers contain WGGWWW tail duplex DNA sequences that bind the PBX-SynTEF payloads, but only WT DNA-Aptamers can bind to TR present on the cell surface of NALM6 ALL cells, resulting in TR-mediated cellular internalization of the polyamide compounds. The MT DNA-Aptamer, has a GG to AA dinucleotide substitution which prevents binding to the TR (*see Cheng et al, 2022). Thus, cells treated with the MT DNA-Aptamer-SynTEF complexes serve as negative controls, since without a functional Aptamer, it is unlikely that the polyamides are taken up by the NALM6 cells. Doxycycline (DOX) was added at 0.1 ug/mL concentration to induce TCF3-PBX1-HaloTag expression, and 48 hours after DOX addition, cell viability was measured using CellTiterGlo reagent (Promega) which detects ATP present only in live cells. CellTiterGlo activity was calculated as Fold Change compared to “DMSO no DOX” treated cells which had the highest cell viability (dark blue bars). Error bars: Standard deviation. N>6 biological replicates.

SMILES: CSCCC(NC(=O)C(Cc1c[nH]c2ccccc12)NC(=O)C1CCCN1C(=O)C(Cc1ccc(O)cc1)NC(=O)C(Cc1ccccc1)NC(C)=O)C(=O)NC(CCCCNC(=O)CCOCCOCCOCCOCCOc1cccc2c1C(=O)N(C1CCC(=O)NC1=O)C2=O)C(=O)NCC(=O)NCCOCCOCCOCCC(=O)NCCCN(C)CCCNC(=O)CCNC(=O)c1cc(NC(=O)c2cc(NC(=O)c3cc(NC(=O)c4cc(NC(=O)CCCNC(=O)c5cc(NC(=O)c6cc(NC(=O)c7nc(NC(=O)c8nccn8C)cn7C)cn6C)cn5C)cn4C)cn3C)cn2C)cn1C (stereo not drawn) [SynTEF-PBX-DRG1]
- further increase of Luciferase expression above DMSO plus DOX baseline (in words) (TCF3-PBX1-HaloTag; both 0.70 and 1.0 μM, with DOX): fail to further increase Luciferase expression
- activity of the oncogenic TCF3-PBX1 fusion in cell-based reporters (in words) (TCF3-PBX1-HaloTag; cell-based reporters): reduced activity
- toxicity to the cells (in words) ([1]; NALM6 cells, without DOX): toxic to the cells but only when internalized
- loss in cell viability ([1]; with DOX 0.1 ug/mL, 48 h): ~ 85%
- cell viability compared to +DOX DMSO and +DOX SynTF-FL cells (in words) ([1]; with DOX, loaded on MT DNA-Aptamer (negative control)): comparable viability
- loss in cell viability ([1]; without DOX, both P2RY10 and CMV nucleofected cells): 70-80%
